Measured values: patent US7741341B2, “Benzimidazole-derivatives as factor Xa inhibitors” (sanofi-aventis Deutschland GmbH, priority 2003, dated 2010)

Biological target: T1, human factor Xa (Homo sapiens, UniProt P00742)
T1 construct: human factor Xa (Enzyme Research Laboratories, Inc; South Bend, Ind.); purchased Enzyme Research Laboratories, Inc; South Bend, Ind
Test: Factor Xa assay (chromogenic, substrate S-2765)
Assay type: biochemical
Settings: read-out: Ki(FXa)
Protocol: Purified enzymes were used in chromogenic assays.
The IC50 was determined by combining in appropriate wells of a Costar half-area microtiter plate 25 μl human factor Xa (Enzyme Research Laboratories, Inc.; South Bend, Ind.) in TBS-PEG; 40 μl 10% (v/v) DMSO in TBS-PEG (uninhibited control) or various concentrations of the compound to be tested diluted in 10% (v/v) DMSO in TBS-PEG; and substrate S-2765 (N(α)-benzyloxycarbonyl-D-Arg-Gly-L-Arg-p-nitroanilide; Kabi Pharmacia, Inc.; Franklin, Ohio) in TBS-PEG.
The assay was performed by pre-incubating the compound of formula I plus enzyme for 10 min. Then the assay was initiated by adding substrate to obtain a final volume of 100 μl. […] The enzyme concentration was 0.5 nM and substrate concentration was 140 μM.

T1 sequence (P00742 235-488 limits assumed): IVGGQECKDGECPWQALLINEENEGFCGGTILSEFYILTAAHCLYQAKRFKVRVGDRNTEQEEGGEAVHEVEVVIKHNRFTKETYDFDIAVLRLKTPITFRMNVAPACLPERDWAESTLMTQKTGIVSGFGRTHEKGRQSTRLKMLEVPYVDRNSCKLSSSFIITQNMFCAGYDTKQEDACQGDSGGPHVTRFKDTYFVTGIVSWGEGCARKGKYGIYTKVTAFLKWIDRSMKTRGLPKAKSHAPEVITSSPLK
T1 sequence (P00742 41-179 partner limits assumed): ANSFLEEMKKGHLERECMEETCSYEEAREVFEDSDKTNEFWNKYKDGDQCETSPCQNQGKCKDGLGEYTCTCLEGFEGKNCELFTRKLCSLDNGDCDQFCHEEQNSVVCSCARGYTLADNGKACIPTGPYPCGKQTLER

SMILES	Ki [µM]
CCOC(=O)OC(C)OC(=O)c1ccc2c(c1)nc(C(=O)NC1CCN(C(C)C)CC1)n2Cc1cc(-c2ccc(Cl)s2)on1 (centres unmarked) [Example 27, 1-[5-(5-Chloro-thiophen-2-yl)-isoxazol-3-ylmethyl]-2-(1-isopropyl-piperidin-4-ylcarbamoyl)-1H-benzoimidazole-5-carboxylic acid 1-ethoxycarbonyloxy-ethyl ester]	0.0125
CC(OC(=O)OC1CCCCC1)OC(=O)c1ccc2c(c1)nc(C(=O)NC1CCN(C(C)C)CC1)n2Cc1cc(-c2ccc(Cl)s2)on1 (centres unmarked) [Example 28, 1-[5-(5-Chloro-thiophen-2-yl)-isoxazol-3-ylmethyl]-2-(1-isopropyl-piperidin-4-ylcarbamoyl)-1H-benzoimidazole-5-carboxylic acid 1-cyclohexyloxycarbonyloxy-ethyl ester]	0.048
CC(C)N1CCC(NC(=O)c2nc3cc(S(=O)(=O)CCO)ccc3n2Cc2cc(-c3ccc(Cl)s3)on2)CC1 [Example 29a, 1-[5-(5-Chloro-thiophen-2-yl)-isoxazol-3-ylmethyl]-5-(2-hydroxy-ethanesulfonyl)-1H-benzoimidazole-2-carboxylic acid (1-isopropyl-piperidin-4-yl)-amide]	0.0255
CC(C)N1CCC(NC(=O)c2nc3ccc(S(=O)(=O)CCO)cc3n2Cc2cc(-c3ccc(Cl)s3)on2)CC1 [Example 29b, 1-[5-(5-Chloro-thiophen-2-yl)-isoxazol-3-ylmethyl]-6-(2-hydroxy-ethanesulfonyl)-1H-benzoimidazole-2-carboxylic acid (1-isopropyl-piperidin-4-yl)-amide]	0.0115
CC(C)N1CCC(NC(=O)c2nc3c(C(=O)NCCO)cccc3n2CC(=O)Nc2ccc(Cl)cn2)CC1 [Example 30, 1-[(5-Chloro-pyridin-2-ylcarbamoyl)-methyl]-1H-benzoimidazole-2,4-dicarboxylic acid 4-[(2-hydroxy-ethyl)-amide] 2-[(1-isopropyl-piperidin-4-yl)-amide]]	0.009
CC(C)N1CCC(NC(=O)c2nc3c(C(=O)N(C)CCO)cccc3n2CC(=O)Nc2ccc(Cl)cn2)CC1 [Example 31, 1-[(5-Chloro-pyridin-2-ylcarbamoyl)-methyl]-1H-benzoimidazole-2,4-dicarboxylic acid 4-[(2-hydroxy-ethyl)-methyl-amide] 2-[(1-isopropyl-piperidin-4-yl)-amide]]	0.0155
CC(C)N1CCC(NC(=O)c2nc3c(C(=O)N4CC(O)C4)cccc3n2CC(=O)Nc2ccc(Cl)cn2)CC1 [Example 32, 1-[(5-Chloro-pyridin-2-ylcarbamoyl)-methyl]-4-(3-hydroxy-azetidine-1-carbonyl)-1H-benzoimidazole-2-carboxylic acid (1-isopropyl-piperidin-4-yl)-amide]	0.0105
CCOC(=O)OC(C)OC(=O)c1cccc2c1nc(C(=O)NC1CCN(C(C)C)CC1)n2CC(=O)Nc1ccc(Cl)cn1 (centres unmarked) [Example 33, 1-[(5-Chloro-pyridin-2-ylcarbamoyl)-methyl]-2-(1-isopropyl-piperidin-4-ylcarbamoyl)-1H-benzoimidazole-4-carboxylic acid 1-ethoxycarbonyloxy-ethyl ester]	0.0125
CC(OC(=O)OC1CCCCC1)OC(=O)c1cccc2c1nc(C(=O)NC1CCN(C(C)C)CC1)n2CC(=O)Nc1ccc(Cl)cn1 (centres unmarked) [Example 34, 1-[(5-Chloro-pyridin-2-ylcarbamoyl)-methyl]-2-(1-isopropyl-piperidin-4-ylcarbamoyl)-1H-benzoimidazole-4-carboxylic acid 1-cyclohexyloxycarbonyloxy-ethyl ester]	0.0195
O=C(Cn1c(C(=O)Nc2ccc(N3CCOCC3=O)cc2)nc2ccccc21)Nc1ccc(Cl)cn1 [Example 35, 1-[(5-Chloro-pyridin-2-ylcarbamoyl)-methyl]-1H-benzoimidazole-2-carboxylic acid [4-(3-oxo-morpholin-4-yl)-phenyl]-amide]	0.041
COC(=O)c1cccc2c1nc(C(=O)Nc1ccc(N3CCOCC3=O)cc1)n2CC(=O)Nc1ccc(Cl)cn1 [Example 36, 1-[(5-Chloro-pyridin-2-ylcarbamoyl)-methyl]-2-[4-(3-oxo-morpholin-4-yl)-phenylcarbamoyl]-1H-benzoimidazole-4-carboxylic acid methyl ester]	0.0315
O=C(Nc1ccc(-n2ccc(=O)cc2)cc1)c1nc2ccccc2n1Cc1cc(-c2ccc(Cl)s2)on1 [Example 37, 1-[5-(5-Chloro-thiophen-2-yl)-isoxazol-3-ylmethyl]-1H-benzoimidazole-2-carboxylic acid [4-(4-oxo-4H-pyridin-1-yl)-phenyl]-amide]	0.012
O=C(Cn1c(C(=O)Nc2ccc(-n3ccc(=O)cc3)cc2)nc2ccccc21)Nc1ccc(Cl)cn1 [Example 39, 1-[(5-Chloro-pyridin-2-ylcarbamoyl)-methyl]-1H-benzoimidazole-2-carboxylic acid [4-(4-oxo-4H-pyridin-1-yl)-phenyl]-amide]	0.047
CN1C2CCC1CC(NC(=O)c1nc3ccccc3n1Cc1cc(-c3ccc(Cl)s3)on1)C2 (centres unmarked) [Example 40, 1-[5-(5-Chloro-thiophen-2-yl)-isoxazol-3-ylmethyl]-1H-benzoimidazole-2-carboxylic acid (8-methyl-8-aza-bicyclo[3.2.1]oct-3-yl)-amide]	0.02
O=C(Nc1ccc(-n2ccc(=O)[nH]c2=O)cc1)c1nc2ccccc2n1Cc1cc(-c2ccc(Cl)s2)on1 [Example 41, 1-[5-(5-Chloro-thiophen-2-yl)-isoxazol-3-ylmethyl]-1H-benzoimidazole-2-carboxylic acid [4-(2,4-dioxo-3,4-dihydro-2H-pyrimidin-1-yl)-phenyl]-amide]	0.006
O=C(Nc1ccc(N2CCOC2=O)cc1)c1nc2ccccc2n1Cc1cc(-c2ccc(Cl)s2)on1 [Example 42, 1-[5-(5-Chloro-thiophen-2-yl)-isoxazol-3-ylmethyl]-1H-benzoimidazole-2-carboxylic acid [4-(2-oxo-oxazolidin-3-yl)-phenyl]-amide]	0.462
O=C(Cn1c(C(=O)Nc2ccc(N3CCOC3=O)cc2)nc2ccccc21)Nc1ccc(Cl)cn1 [Example 43, 1-[(5-Chloro-pyridin-2-ylcarbamoyl)-methyl]-1H-benzoimidazole-2-carboxylic acid [4-(2-oxo-oxazolidin-3-yl)-phenyl]-amide]	0.84
O=C(Cn1c(C(=O)Nc2ccc(-n3ccc(=O)[nH]c3=O)cc2)nc2ccccc21)Nc1ccc(Cl)cn1 [Example 44, 1-[(5-Chloro-pyridin-2-ylcarbamoyl)-methyl]-1H-benzoimidazole-2-carboxylic acid [4-(2,4-dioxo-3,4-dihydro-2H-pyrimidin-1-yl)-phenyl]-amide]	0.028
O=C1CCN(c2ccc(NC(=O)c3nc4ccccc4n3Cc3cc(-c4ccc(Cl)s4)on3)cc2)CC1 [Example 45, 1-[5-(5-Chloro-thiophen-2-yl)-isoxazol-3-ylmethyl]-1H-benzoimidazole-2-carboxylic acid [4-(4-oxo-piperidin-1-yl)-phenyl]-amide]	0.21
O=C(Nc1ccc(-n2ccncc2=O)cc1)c1nc2ccccc2n1Cc1cc(-c2ccc(Cl)s2)on1 [Example 48, 1-[5-(5-Chloro-thiophen-2-yl)-isoxazol-3-ylmethyl]-1H-benzoimidazole-2-carboxylic acid [4-(2-oxo-2H-pyrazin-1-yl)-phenyl]-amide]	0.002
O=C(Nc1ccc(N2CCNCC2=O)cc1)c1nc2ccccc2n1Cc1cc(-c2ccc(Cl)s2)on1 [Example 50, 1-[5-(5-Chloro-thiophen-2-yl)-isoxazol-3-ylmethyl]-1H-benzoimidazole-2-carboxylic acid [4-(2-oxo-piperazin-1-yl)-phenyl]-amide]	0.141
O=C(Cn1c(C(=O)Nc2ccc(N3CCNCC3=O)cc2)nc2ccccc21)Nc1ccc(Cl)cn1 [Example 51, 1-[(5-Chloro-pyridin-2-ylcarbamoyl)-methyl]-1H-benzoimidazole-2-carboxylic acid [4-(2-oxo-piperazin-1-yl)-phenyl]-amide]	0.51
COCCOc1cccc2c1nc(C(=O)Nc1ccc(N3CCOCC3=O)cc1)n2CC(=O)Nc1ccc(Cl)cn1 [Example 52, 1-[(5-Chloro-pyridin-2-ylcarbamoyl)-methyl]-4-(2-methoxy-ethoxy)-1H-benzoimidazole-2-carboxylic acid [4-(3-oxo-morpholin-4-yl)-phenyl]-amide]	0.014
O=C(Cn1c(C(=O)Nc2ccc(N3CCOCC3=O)cc2)nc2c(C(=O)O)cccc21)Nc1ccc(Cl)cn1 [Example 53, 1-[(5-Chloro-pyridin-2-ylcarbamoyl)-methyl]-2-[4-(3-oxo-morpholin-4-yl)-phenylcarbamoyl]-1H-benzoimidazole-4-carboxylic acid]	0.04
CC(C)N1CCC(NC(=O)c2nc3cc(C(=O)N4CC(O)C4)ccc3n2CC(=O)Nc2ccc(Cl)cn2)CC1 [Example 54, 1-[(5-Chloro-pyridin-2-ylcarbamoyl)-methyl]-5-(3-hydroxy-azetidine-1-carbonyl)-1H-benzoimidazole-2-carboxylic acid (1-isopropyl-piperidin-4-yl)-amide]	0.031
CC(C)N1CCC(NC(=O)c2nc3ccc(C(=O)NCCO)cc3n2CC(=O)Nc2ccc(Cl)cn2)CC1 [Example 57, 3-[(5-Chloro-pyridin-2-ylcarbamoyl)-methyl]-3H-benzoimidazole-2,5-dicarboxylic acid 5-[(2-hydroxy-ethyl)-amide]2-[(1-isopropyl-piperidin-4-yl)-amide]]	0.585
